The text below walks through data of patent US12084423B2, “Piperlongumine analogues and uses thereof” (BioVentures, LLC, priority 2018, dated 2024).

For orientation: EC50 means the concentration at which the effect is half-maximal. Lower therefore signals an effect from little substance.

Test [1] has as its system IR-induced senescent cells (IR-SC WI-38). In words: Cell viability of IR-induced senescent WI-38 cells after 72 hours of compound treatment. It is filed as cell-based. The conditions noted are these: for selective killing of senescent WI38 cells over normal WI38 cells: ionizing radiation (IR, 10 Gy) induced senescent vs normal WI38 cells, viability at 72 hours, percent of control; for EC50: Homo sapiens, IR-induced senescent WI-38 cells, cell viability at 72 hours post-treatment. The procedure: (§1) Normal WI-38 cells and IR-induced senescent cells were incubated with increasing concentrations of compounds of Formula (I). At 72 hours post-treatment cell viability was measured and ED50was calculated. Table 1 depicts the ED50 values of the compounds of Formula (I) against normal and IR-induced senescent cells.

Test [2] relates to normal WI-38 cells. In words: Cell viability of normal WI-38 cells after 72 hours of compound treatment. The class given is cell-based. The conditions noted are these: Homo sapiens, cell viability at 72 hours post-treatment. On the procedure:
as §1

On to `COc1cc(/C=C/C(=O)N2OCC=CC2=O)cc(OC)c1OC` [XZ-12037, (E)-2-(β-(3,4,5-trimethoxyphenyl)acryloyl)-2H-1,2-oxazin-3(6H)-one], for which the “selective killing of senescent WI38 cells over normal WI38 cells” value in test [1] is “selectively kills senescent WI38 cells over normal WI38 cells”.

Regarding `COc1cc(/C=C/C(=O)N2CCC=C(I)C2=O)cc(OC)c1OC` [No 4], the results for the EC50 in test [2] and in test [1] were 18.3 µM and 2.3 µM, respectively. For `COc1cc(/C=C/C(=O)N2CCC=C(Br)C2=O)cc(OC)c1OC` [No 3] the same measures were 5.4 µM and 0.52 µM. For `COc1ccc(/C=C/C(=O)N2CCCC=C(Br)C2=O)cc1` [No 11] the same measures were 5.8 µM and 1.3 µM.

As to `COc1cc(C(Cl)=CC(=O)N2CCCC=CC2=O)cc(OC)c1OC` [XZ-12089, (E)-β-chloro-1-(β-(3,4,5-trimethoxyphenyl)acryloyl)-1,5,6,7-tetrahydro-2H-azepin-2-one], the “selective killing of senescent WI38 cells over normal WI38 cells” value in test [1] was “selectively kills senescent WI38 cells over normal WI38 cells”.

In the case of `O=C1C(Cl)=CCCN1S(=O)(=O)/C=C/c1ccccc1` [No 15], the values for the concentration for a half-maximal effect (EC50) in test [2] and in test [1] were 8.8 µM and 0.94 µM, respectively. The corresponding values for `COc1cc(/C=C/C(=O)N2CCC=C(Cl)C2=O)cc(OC)c1OC` [No 2] are 5.3 µM and 0.65 µM.

`COc1cc(/C=C/C(=O)N2OCC=CC2=O)cc(OC)c1OC` [No 7]: the EC50 in test [2] turned out to be 47.7 µM; in test [1], 8 µM.

On to `C=CC(=O)N1OCC=CC1=O` [No 12], for which the concentration for a half-maximal effect (EC50) in test [2] was determined as 16.3 µM; in test [1], 5.7 µM. For `O=C1C(Br)=CCCN1C(=O)c1cc2ccccc2oc1=O` [No 13] the same measures were 6.2 µM and 1.7 µM. For `COc1cc(/C=C/C(=O)N2CCCC=C(Br)C2=O)cc(OC)c1OC` [No 6] the same measures were 3.6 µM and 0.56 µM. For `COc1ccc(/C=C/C(=O)N2CCCC=C(Cl)C2=O)cc1` [No 10] the same measures were 1.5 µM and 0.16 µM.

Regarding `O=C1C(Br)=CCCN1S(=O)(=O)/C=C/c1ccccc1` [No 16], the EC50 in test [2] is 28.1 µM; in test [1], 2.8 µM. As to `COc1cc(/C=C/C(=O)N2CCCC=C(Cl)C2=O)cc(OC)c1OC` [No 5], the values for the EC50 in test [2] and in test [1] were 1.7 µM and 0.45 µM, respectively. For `COc1ccc(/C=C/C(=O)N2CCC=C(Br)C2=O)cc1` [No 9] the same measures were 1.1 µM and 0.63 µM. For `O=C1C(Br)=CCCCN1C(=O)c1cc2ccccc2oc1=O` [No 14] the same measures were 5 µM and 4 µM. The corresponding values for `COc1ccc(/C=C/C(=O)N2CCC=C(Cl)C2=O)cc1` [No 8] are 0.35 µM and 0.51 µM.

Take `COc1cc(/C=C/C(=O)N2CCC=C(F)C2=O)cc(OC)c1OC` [No 1]: the results for the half-maximal effective concentration (EC50) in test [2] and in test [1] were 12.1 µM and 15.3 µM, respectively.
